Results from US9856534B2, “Selecting use of proteasome inhibitors based on NF-κB2 sequence” (Emory University, priority 2011, dated 2018).

Key:
Assay type in all cases: cell-based
[1] = tested on: Daudi and Raji lymphoma cell lines; test: Apoptosis by flow cytometry (Annexin V) in lymphoma cell lines expressing p100 siRNA, treated with bortezomib
Method: (A) Two lymphoma cell lines, Daudi and Raji, expressing a p100 or a p105 siRNA were treated with titrating doses of bortezomib for 24 hours. […] Expression of p100 siRNA in two lymphoma cell lines, Daudi and Raji, reduce the protein levels of cleaved caspase 3 and 9. Western blot of Daudi and Raji cell lines expression p100 siRNA or luciferase were performed after 24 hours of treatment with titrating does of bortezomib.
Sequences of NF-κB2-shRNA are known. The sense shRNA oligonucleotide probes were as follows: p100, […] (SEQ ID NO: 12). Luciferase (Luc) shRNA plasmid was provided by S. Stewart. Short interfering hairpin RNA were expressed under U6 human promoter and were generated using PLKopuro.1. NF-κB2, NF-κB2-ankirin repeats region, NF-κB2-death domain and LcZ (control) were expressed under a CMV promoter and generated using a pLenti6/V5-DEST (Invitrogen Life Technologies). Recombinant lentiviruses were generated in 293T cells, for infection of all MM cell lines. Stable cell lines expressing shRNAs or the protein of interest were obtained after selecting cells with 2 μg/mL puromycin or 10 μg/mL, respectively. Cells were used for experiments two weeks after infection.

NF-κB = test: NF-κB-luciferase reporter assay; conditions: Daudi and SC lymphoma cell lines; titrating doses, 24 hours
Method: Daudi and SC cell lines were transfected with a NF-κB-luciferase reporter construct (1 μg of DNA). Twenty four hours post-transfection, cells were treated with titrating doses of bortezomib. After 24 hours of treatment, cells were harvested and lysed with RIPA buffer. Twenty microliters of the lysate were mixed with Luciferase assay substrate (Promega, Madison, Wis.) followed by Stop & Glo reagent. Luciferase activity was then measured in a luminometer.

[2] = tested on: OPM and KMS11 multiple myeloma cell lines; test: Live cell count (Yo-pro-1 iodide/PI negative) in MM cell lines stably expressing NF-κB2 constructs, treated with bortezomib; conditions: titrating doses, 24 hours; live cells
Method: A) Two multiple myeloma cell lines, OPM and KMS11, stably expressing the full length NF-κB2 (p100), NF-κB2-ankyrin domains, NF-κB2-death domain were generated using a pLenti6.2/V5-DEST lentivirus. Cells were then treated at titrating doses of bortezomib. After 24 hours the cells were harvested and stained with Yo-pro-1 iodide and propidium Iodide (PI, both from Invitrogen, Grand Island, N.Y.). Live cells were measured using a ImageXpress 5000A Automated Acquisition and Analysis System (Molecular Devices, Sunnyvale, Calif.), quantitating for Yo-pro-1 iodide and PI negative cells. B) OPM1 and RPMI cells stably expressing NF-κB2 (p100), NF-κB2-ankyrin domains or control vector (LacZ) were treated with 10 nM of bortezomib for 24 hours. Cells were harvested and Western blot was performed to assay for caspase 9, cleaved caspase 9 and 3 and actin.
For apoptosis studies, 10^4 cells were treated with titrating doses of doxorubicin (doses: […], Sigma) or rituximab (titrating doses: 1.5, 2.5, 5, 10 and 20 μg/mL, Biogen Idec Inc). Twenty four hours later cells were stained with Yo-pro-1 and Propidium Iodide (Invitrogen). Live cells were measured using a ImageXpress 5000A Automated Acquisition and Analysis System (Molecular Devices, Sunnyvale, Calif.), quantitating for Yo-pro-1 or PI negative cells.
Sequences of NF-κB2-shRNA are known. […]

RPMI = test: Bortezomib sensitivity of MM cell line RPMI
KMS11 = test: Bortezomib sensitivity of MM cell line KMS11

SMILES: CC(C)C[C@H](NC(=O)[C@H](Cc1ccccc1)NC(=O)c1cnccn1)B(O)O [bortezomib]
- bortezomib sensitivity of lymphoma cells [1]: sensitive
- bortezomib-induced apoptosis on p100 siRNA expression ([1]; titrating doses, 24 hours, Annexin V): reduces
- effect on NF-kB luciferase reporter activity (NF-κB): NF-kB inhibitory effects
- sensitivity to bortezomib on expression of p100 (NF-κB2), NF-κB2-ankyrin domains and NF-κB2-death domain [2]: restores sensitivity
- bortezomib sensitivity of cell line (RPMI): resistant
- bortezomib sensitivity of cell line (KMS11): resistant
